Experimental data: patent publication US7803757B2, “Peptides based on the sequence of human lactoferrin and their use” (PharmaSurgics in Sweden AB, priority 1998, dated 2010)
Peptide text beside a SMILES is read from it. * marks the point of attachment. Acm = CC(=O)NC*

Experiments:
[1] = tested on: Candida albicans ATCC 64549; experiment: fungicidal and growth inhibitory activity, Candida albicans ATCC 64549 (Example 8); format: cell-based
Method: Candida albicans ATCC 64549 (1·10^5/ml) was incubated in the presence of the peptides during 2 hours at 37° C. in diluted growth medium (BHI, twofold serial dilutions starting with 50 μg/ml). The fungicidal activity was measured by culturing 5 μl from each incubation well on Saboroud agar plates.
The inhibition of growth was measured spectrophotometrically after 20 hours of incubation.

[2] = tested on: C. glabrata; experiment: fungicidal activity MMC99%, C. glabrata (Example 27); format: cell-based; details: BHI diluted 1/100 (Table 23)
Method: In the examples, the minimal microbicidal concentrations (MMC) and minimal inhibitory concentrations (MIC) were determined as follows, unless otherwise specified in the examples. Bacterial or fungal strains were cultured in BHI medium over night at 37° C. A volume of the culture was transferred to a new tube with BHI and incubated for two more hours. Thereafter the cells were spun down and the pellet was suspended in BHI medium diluted 1/100 (1% BHI). The concentration of bacterial or fungal cells was spectrophotometrically determined at 650 nm. The microbial concentrations were also determined by viable counts. Peptides serially diluted in 1% BHI by twofold or tenfold steps were added in triplicate to the wells of a microtiterplate (200 μl per well). The bacterial or fungal cell solutions were added in 10 μl volumes to give a final concentration of approximately 1-5×10^5 cells per ml in the well. The microplate was incubated at 37° C. in a humid chamber for two hours. Thereafter 5 μl was taken from each well and added as a drop onto a blood agar plate and incubated over night at 37° C. The microplate was incubated for another 20 hours at 37° C. and thereafter analysed spectrophotometrically at 650 nm in a microplate reader (Emax, Molecular Devices, USA). The concentration of peptide causing a 99% reduction of the inoculum after 2 hours of incubation was defined as the MMC99%. The MIC value was defined as the concentration giving no increase in the absorbance value above the background level after 20 hours of incubation.
In this example the fungicidal activity of three of the peptides according to the invention was studied, and tested against three different fungi. The fungi were incubated in BHI medium diluted 1/100. The concentration of each peptide needed to kill 99% of the fungi (MMC99%) was determined.

[3] = tested on: E. coli O14; experiment: bactericidal activity, incubation with E. coli O14 (Example 3, exp. I and III); format: cell-based
Method: Human lactoferrin (hLF), peptide 3, and peptide 4, respectively, were incubated with two different strains of E. coli, E. coli O14 (experiment I) and O6K5 (experiment II), in diluted growth medium ( 1/100 BHI—brain heart infusion) for 2 hours. The peptides were also incubated with E. coli O14 in 0.05 mM KCl (pH 7) without any growth medium (experiment III). Different concentrations of the peptides were tested.
After the incubation, samples were taken for bacterial plating. Serial dilutions of five- and fourfold steps were used in experiments I and II, respectively, and of twofold steps in experiment III.
The concentrations of the different peptides required for killing 100% (experiments I and II) or 90% (experiment III) of the bacteria are given in table 2.

[4] = tested on: E. coli O6K5; experiment: urinary tract infection in mice, bacteria (CFU) in kidney (Example 6); format: in vivo; details: 500 μg per mouse orally 30 minutes after instillation, 24 hours
Method: E. coli O6K5 was instilled into the urinary bladder of mice. 30 minutes after instillation the different agents specified in table 5 were administered orally in an amount of 500 μg per mouse and 24 hours after instillation the number of bacteria (CFU) present in bladder and in kidney was determined.
The control group consisted of 10 animals in experiment I and of 23 animals in experiment II. The animals in the control groups were given tap water instead of peptide or hLF.

[5] = tested on: LPS-induced IL-6 response in a monocytic cell line (THP-1); experiment: inhibition of LPS-induced IL-6 response in THP-1 cells (Example 5); format: cell-based; details: agent added 30 minutes after LPS
Method: In this example an in vitro test was performed to study the anti-inflammatory activity of the peptides according to the invention. More precisely, the inhibitory effect of the peptides according to the invention on the LPS-induced IL-6 response in a monocytic cell line (THP-1) was studied and compared to the effect of human lactoferrin by use of the method described by I. Mattsby-Baltzer et al., Pediatr. Res. 40:257-262, 1996. The IL-6 response in the THP-1 cells was induced by addition of LPS. hLF, peptide 3 and peptide 4, respectively, were added 30 minutes after LPS.

[6] = tested on: Candida albicans; experiment: fungicidal activity against Candida albicans, comparison with EP-A-0 629 347 peptides (Example 7); format: cell-based; details: C. albicans, I (tenfold steps), 5 · 10^3 yeast cells per ml
Method: In this example an in vitro test was performed to compare the bactericidal and fungicidal activity of the peptides according to the invention with peptides described in EP-A-0 629 347. The peptide according to the invention used was peptide 4, and the peptides according to EP-A-0 629 347 called Morinaga 10, Morinaga 11, Morinaga 12, and Morinaga 13.
The peptides were incubated with E. coli O14 and Candida albicans. Two concentrations of C. albicans yeast cells were tested, 5·10^6 and 5·10^3 per ml. Different concentrations of the peptides were tested.
After the incubation, samples were taken for bacterial plating. Serial dilutions of tenfold steps were used in the experiments marked with I in table 5 and of twofold steps in the experiments marked with II.

[7] = tested on: E. coli O14; experiment: bactericidal and growth inhibitory activity, E. coli O14 (Example 9); format: cell-based
Method: E. coli O14 was incubated as described above in the presence of the peptides during 2 hours. The bactericidal activity was measured in the same way as described above.
The inhibition of growth was measured spectrophotometrically after incubation during 20 hours.

[8] = tested on: E. coli O6K5; experiment: microbicidal activity MMC99%, E. coli O6K5 (Example 28); format: cell-based; details: E. coli O6K5 (Table 24)
Summary of the method: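 Peptides serially diluted in 1% BHI were incubated with E. coli O6K5 or C. albicans (~1-5×10^5 cells/ml) for 2 h at 37 °C, then spotted on blood agar overnight. MMC99% was the peptide concentration causing 99% reduction of the inoculum.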

## CC[C@H](C)[C@H](NC(=O)[C@H](CSCNC(C)=O)NC(=O)[C@H](CO)NC(=O)[C@@H](NC(=O)[C@@H]1CCCN1C(=O)[C@@H]1CCCN1C(=O)CNC(=O)[C@H](CCCNC(=N)N)NC(=O)[C@@H](NC(=O)[C@H](CCCCN)NC(=O)[C@H](CCCNC(=N)N)NC(=O)[C@H](CCSC)NC(=O)[C@H](CC(N)=O)NC(=O)[C@H](CCCNC(=N)N)NC(=O)[C@H](CCC(N)=O)NC(=O)[C@H](Cc1c[nH]c2ccccc12)NC(=O)[C@H](CCC(N)=O)NC(=O)[C@H](Cc1ccccc1)NC(=O)[C@H](CSCNC(C)=O)NC(=O)[C@H](CCCCN)NC(=O)[C@@H](NC(C)=O)[C@@H](C)O)C(C)C)C(C)C)C(=O)N[C@@H](CCCCN)C(=O)N[C@@H](CCCNC(=N)N)C(N)=O [Peptide 4] (Ac-TKC(Acm)FQWQRNMRKVRGPPVSC(Acm)IKR-NH2)
[1]; C. albicans ATCC 64549 1·10^5/ml, 2 hours 37° C., diluted BHI
  Concentration of agent for 100% killing: 6.2 µg/mL
[1]; C. albicans ATCC 64549, spectrophotometrically after 20 hours
  Concentration of agent for inhibition of growth: 6.2 µg/mL
[2]
  MMC99%: >50
[3]; Exp. I: 100% killing, E. coli O14, 1/100 BHI, 2 hours
  Concentration of agent for 100%/90% killing: 4.4 µg/mL
[3]; Exp. III: 90% killing, E. coli O14, 0.05 mM KCl (pH 7) without growth medium
  Concentration of agent for 100%/90% killing: 3.2 µg/mL
[4]; Exp I, mouse strain CH/HeN
  Statistical comparison of treatment group with control group of the number of bacteria, CFU, present in kidney (p, Mann-Whitney): p = 0.0137
[4]; Exp II, mouse strain C3H/Tif
  Statistical comparison of treatment group with control group of the number of bacteria, CFU, present in kidney (p, Mann-Whitney): p = 0.0102
[5]; IL-6 response in THP-1 cells
  % inhibition of LPS response: 39%
[5]; THP-1 cells
  inhibitory activity on the LPS-induced IL-6 response (in words): significant inhibition
[6]
  Concentration of agent for 100% killing: 10 µg/mL
[7]; E. coli O14, 2 hours
  Concentration of agent for 100% killing: 12.5 µg/mL
[7]; E. coli O14, spectrophotometrically after 20 hours
  Concentration of agent for inhibition of growth: 3.1 µg/mL
[8]
  MMC99%: 20
